Reference: paper PMC12092823 (Scientific Reports, 2025)

How the values were obtained:
α-glucosidase [1] = experiment: In vitro α-glucosidase inhibition assay; type: biochemical, yeast; settings: for anti-α-glucosidase activity in words: in comparison to acarbose or compound 14b; for folds more active than acarbose against α-glucosidase: versus acarbose
α-glucosidase [2] = experiment: Kinetic study; type: biochemical, yeast; settings: Lineweaver–Burk plots

## O=C(Cn1cc(CNC(=O)c2cc3c([nH]c4ccccc43)c(-c3ccc(Cl)cc3)n2)nn1)Nc1cccc(Cl)c1 [Compound 14n, 1-(4-chlorophenyl)-N-((1-(2-((3-chlorophenyl)amino)-2-oxoethyl)-1 H-1,2,3-triazol-4-yl)methyl)-9 H-pyrido[3,4-b]indole-3-carboxamide]
α-glucosidase [1]
  anti-α-glucosidase activity in words: good

## O=C(Cn1cc(CNC(=O)c2cc3c([nH]c4ccccc43)c(-c3ccc(Cl)cc3)n2)nn1)Nc1ccccc1F [14 m, 1-(4-chlorophenyl)-N-((1-(2-((2-fluorophenyl)amino)-2-oxoethyl)-1 H-1,2,3-triazol-4-yl)methyl)-9 H-pyrido[3,4-b]indole-3-carboxamide]
α-glucosidase [1]
  folds more active than acarbose against α-glucosidase: around 5 folds

## Cc1cc([N+](=O)[O-])ccc1NC(=O)Cn1cc(CNC(=O)c2cc3c([nH]c4ccccc43)c(-c3ccc(Cl)cc3)n2)nn1 [14 L, 1-(4-chlorophenyl)-N-((1-(2-((2-methyl-4-nitrophenyl)amino)-2-oxoethyl)-1 H-1,2,3-triazol-4-yl)methyl)-9 H-pyrido[3,4-b]indole-3-carboxamide]
α-glucosidase [1]
  anti-α-glucosidase activity in words: good

## Cc1cc([N+](=O)[O-])ccc1NC(=O)Cn1cc(CNC(=O)c2cc3c([nH]c4ccccc43)c(-c3ccccc3)n2)nn1 [Compound 14c, N-((1-(2-((2-methyl-4-nitrophenyl)amino)-2-oxoethyl)-1 H-1,2,3-triazol-4-yl)methyl)-1-phenyl-9 H-pyrido[3,4-b]indole-3-carboxamide]
α-glucosidase [1]; versus compound 14b
  decrease of anti-α-glucosidase activity relative to compound 14b: 10 folds

## O=C(Cn1cc(CNC(=O)c2cc3c([nH]c4ccccc43)c(-c3ccc(Cl)cc3)n2)nn1)Nc1ccccc1 [Compound 14j, 1-(4-chlorophenyl)-N-((1-(2-oxo-2-(phenylamino)ethyl)-1 H-1,2,3-triazol-4-yl)methyl)-9 H-pyrido[3,4-b]indole-3-carboxamide]
α-glucosidase [1]
  folds more active than acarbose against α-glucosidase: around 5 folds

## Cc1ccccc1NC(=O)Cn1cc(CNC(=O)c2cc3c([nH]c4ccccc43)c(-c3ccc(Cl)cc3)n2)nn1 [Compound 14k, 1-(4-chlorophenyl)-N-((1-(2-oxo-2-(o-tolylamino)ethyl)-1 H-1,2,3-triazol-4-yl)methyl)-9 H-pyrido[3,4-b]indole-3-carboxamide]
α-glucosidase [1]; versus compound 14 L
  inhibitory activity diminished relative to compound 14 L: 3 folds

## COc1ccc(NC(=O)Cn2cc(CNC(=O)c3cc4c([nH]c5ccccc54)c(-c4ccccc4)n3)nn2)c([N+](=O)[O-])c1 [Compound 14e, N-((1-(2-((4-methoxy-2-nitrophenyl)amino)-2-oxoethyl)-1 H-1,2,3-triazol-4-yl)methyl)-1-phenyl-9 H-pyrido[3,4-b]indole-3-carboxamide]
α-glucosidase [1]
  anti-α-glucosidase activity in words: moderate

## Cc1ccccc1NC(=O)Cn1cc(CNC(=O)c2cc3c([nH]c4ccccc43)c(-c3ccccc3)n2)nn1 [Compound 14b, N-((1-(2-oxo-2-(o-tolylamino)ethyl)-1 H-1,2,3-triazol-4-yl)methyl)-1-phenyl-9 H-pyrido[3,4-b]indole-3-carboxamide]
α-glucosidase [1]
  anti-α-glucosidase activity in words: significant
α-glucosidase [2]
  effect of increasing inhibitor concentration on Km and Vmax: decrease in Km and Vmax
  type of α-glucosidase inhibition: uncompetitive

## COc1ccc(-c2nc(C(=O)NCc3cn(CC(=O)Nc4cccc(Cl)c4)nn3)cc3c2[nH]c2ccccc23)cc1 [Compound 14i, N-((1-(2-((3-chlorophenyl)amino)-2-oxoethyl)-1 H-1,2,3-triazol-4-yl)methyl)-1-(4-methoxyphenyl)-9 H-pyrido[3,4-b]indole-3-carboxamide]
α-glucosidase [1]
  anti-α-glucosidase activity in words: significant inhibitor
